Drawing on EP0558245A1, “Heterobicyclic compounds as antagogists of alpha-1 adrenergic and SHT1A receptors” (priority 1992, dated 1993), this text covers LD50 and IC50 for 19 molecules.

Structures can show the parent of a compound that is named as a salt. Where two headings read alike, the source gives them in different places.

Data set [1] is described as follows: Acute toxicity in mice after intraperitoneal and oral administration. The conditions noted are these: mouse, in vivo, female albino Swiss mice, mortality recorded 7 days after administration. The method, then:
Male Sprague Dawley rats [Crl: CD' BR] of 200-300 g b.w., female Albino Swiss mice [Crl: CD-1 (ICR) BR] 20-30 g b.w., and male Beagle dogs (10-12 kg b.w.) were obtained from Charles River, Italy and Nossan (Correzzana, Milan, Italy), respectively. Animals were housed with free access to food and water and maintained on forced light-dark cycle at 22-24°C until the day of experiments.
The acute toxicity of synthesized compounds was evaluated in female albino Swiss mice after intraperitoneal and oral administration. Four logarithmic scaled doses of the compounds were dissolved or suspended in 0.5% Methocel and administered in a volume of 10 ml/kg to groups of 4 mice/dose. Mortality was recorded 7 days after the administration. Data analysis: the LD₅₀ values and their fiducial limits were calculated according to the method of Weil (Biometrics, 8, 249, 1952).

For data set [2], the target named is α₁ receptors. Briefly: [3H]prazosin binding (α1 receptors), rat cerebral cortex membranes. The conditions noted are these: rat cerebral cortex crude membranes, [3H]prazosin 0.35 nM, 25°C 30 min; read-out: Receptor Binding IC50 (nM) α1.
Description: Rat cerebral cortices were homogenized in 50 volumes of original wet weight of ice-cold 50 mM Tris-HCl buffer pH 7.4. The homogenates were centrifuged at 48,000 x g for 10 minutes, and the pellets were resuspended in the same volume of ice-cold buffer, centrifuged and resuspended two more times. The final pellets obtained were resuspended in the same volume of buffer and incubated according to the conditions reported in the table below.
(§1) The incubations were terminated after the appropriate time (see table) by rapid filtration through Whatman GF/B filters using a Brandel cell harvester. The filters were washed twice with 15 ml of ice-cold buffer (see table). The radioactivity retained on the filters was determined by liquid scintillation counting. Nonspecific binding (which amounted generally to 10-30%) was evaluated by adding high concentrations of the specific displacers (see table). All the compounds were initially tested at 1x10⁻⁶ M concentration, and in the presence of significant displacing activity, a complete competition curve was generated (down to a concentration of 10⁻¹¹ M). All the samples were run in triplicate.
The target in data set [3] is T1, 5HT1A receptors (Rattus norvegicus, UniProt P19327).
T1 construct: Rat hippocampi were homogenized; from tissue; host or cells: rat hippocampus membranes
T1 sequence (P19327 1-422): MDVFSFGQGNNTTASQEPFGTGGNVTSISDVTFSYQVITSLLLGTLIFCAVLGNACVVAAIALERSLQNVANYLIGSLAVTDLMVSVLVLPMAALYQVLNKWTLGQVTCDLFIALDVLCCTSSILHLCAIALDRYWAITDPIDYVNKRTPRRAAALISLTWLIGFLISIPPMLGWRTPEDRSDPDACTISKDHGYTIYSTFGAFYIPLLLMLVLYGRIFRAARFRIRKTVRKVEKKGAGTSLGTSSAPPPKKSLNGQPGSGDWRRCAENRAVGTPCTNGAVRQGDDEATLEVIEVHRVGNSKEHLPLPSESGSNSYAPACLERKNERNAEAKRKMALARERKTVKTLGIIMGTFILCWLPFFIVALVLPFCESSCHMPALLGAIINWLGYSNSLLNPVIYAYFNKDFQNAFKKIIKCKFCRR
Briefly: [3H]8-OH-DPAT binding (5HT1A receptors), rat hippocampus membranes. The conditions noted are these: rat hippocampus crude membranes, [3H]8-OH-DPAT 1.0 nM, 25°C 30 min; read-out: Receptor Binding IC50 (nM) 5-HT1a.
Description: Rat hippocampi were homogenized in 50 volumes of original wet weight of ice-cold 50 mM Tris-HCl buffer pH 7.4. The homogenates were centrifuged at 48,000 x g for 10 minutes, and the pellets were resuspended in the same volume of ice-cold buffer, incubated for 10 minutes at 37°C, centrifuged and resuspended two more times. The final pellets obtained were resuspended in the same volume of buffer and incubated according to the conditions reported in the table below.
as §1
The competition curves were always analyzed (to evaluate the IC₅₀ values) by non linear curve fitting of the logistic equation according to the method reported by De Lean et al. (Am. J. Physiol., 235, E97, 1978), utilizing the ALLFIT program [publically available from the National Institutes of Health (N.I.H.) Bethesda, Maryland, USA] written for the IBM PC.

The mark [4] stands for this setting: ip, intraperitoneal, read-out: Acute Toxicity in Mice LD50 (mg/kg) i.p.
Where [5] appears, read: oral, read-out: Acute Toxicity in Mice LD50 (mg/kg) p.o.

The IC50 is the concentration at which inhibition is half-maximal. In the case of `Cc1c(-c2ccccc2)oc2c(C(=O)NCCCN3CCC(C(=O)c4ccc(F)cc4)CC3)cccc2c1=O` [Example 56, 8-{3-[4-(4-fluorobenzoyl)-1-piperidinyl]-propyl-carbamoyl}-3-methyl-4-oxo-2-phenyl-4H-1-benzopyran], the LD50 at 168 h in data set [1] (setting [4]) was > 500 mg/kg. Also, the IC50 in data set [2] was determined as 25 nM; in data set [3] it was 748 nM.

For `COc1ccccc1N1CCN(CCCNC(=O)c2cccc3c2OCCC3=O)CC1.CS(=O)(=O)O` [Example 87, 8-{3-[4-(2-methoxyphenyl)-1-piperazinyl]-propylcarbamoyl}-2,3-dihydro-4-oxo-4H-1-benzopyran methanesulphonate], the LD50 at 168 h in data set [1] (setting [4]) was 237 mg/kg; in data set [1] (setting [5]), > 500 mg/kg. Besides, the half-inhibitory concentration (IC50) in data set [2] was found to be 119 nM; in data set [3] it was 107 nM.

For `COc1ccccc1N1CCN(CCC(=O)Nc2cccc3c(=O)c(C)c(-c4ccccc4)oc23)CC1.Cl` [Example 37, 8-{3-[4-(2-methoxyphenyl)-1-piperazinyl]-propionamido}-3-methyl-4-oxo-2-phenyl-4H-1-benzopyran hydrochloride], the LD50 at 168 h is > 500 mg/kg in data set [1] (setting [4]) and > 2000 mg/kg in data set [1] (setting [5]). For the same molecule, the 50% inhibitory concentration (IC50) in data set [2] worked out at 32 nM; in data set [3] it was 77 nM.

Turning to `COc1ccccc1N1CCN(CCCN(C(C)=O)c2cccc3c(=O)c(C)c(-c4ccccc4)oc23)CC1.Cl.O` [Example 36, 8-{N-acetyl-3-[4-(2-methoxyphenyl)-1-piperazinyl]-propylamino}-3-methyl-4-oxo-2-phenyl-4H-1-benzopyran hydrochloride hydrate], the LD50 at 168 h is > 500 mg/kg in data set [1] (setting [4]) and > 2000 mg/kg in data set [1] (setting [5]). The half-inhibitory concentration (IC50) in data set [2] came to 18 nM; in data set [3] it was 54 nM.

On to `CCOc1ccccc1OCCNCCOCc1cccc2c(=O)c(C)c(-c3ccccc3)oc12.Cl` [Example 28, 8-{2-[2-(2-ethoxyphenoxy)-ethylamino]-ethoxymethyl}-3-methyl-4-oxo-2-phenyl-4H-1-benzopyran hydrochloride], for which the values for the LD50 at 168 h in data set [1] (setting [4]) and in data set [1] (setting [5]) were 203 mg/kg and 1130 mg/kg, respectively. Moreover, the half-maximal inhibitory concentration (IC50) was 120 nM in data set [2] and 96 nM in data set [3].

Take `COc1ccccc1N1CCN(CCOC(=O)/C=C/c2cccc3c(=O)c(C)c(-c4ccccc4)oc23)CC1` [Example 79, (E)-8-<2-{2-[4-(2-methoxyphenyl)-1-piperazinyl]-ethoxycarbonyl}-ethenyl>-3-methyl-4-oxo-2-phenyl-4H-1-benzopyran methanesulphonate]: the LD50 at 168 h in data set [1] (setting [4]) was > 500 mg/kg; in data set [1] (setting [5]) it was > 2000 mg/kg. Besides, the IC50 came out at 77 nM in data set [2] and 141 nM in data set [3].

With `Cc1c(-c2ccccc2)oc2c(C(=O)NCCCNCC3COc4ccccc4O3)cccc2c1=O` (stereo not shown) [Example 52, 8-{3-[2-(1,4-benzodioxanyl)methylamino]propylcarbamoyl}-3-methyl-4-oxo-2-phenyl-4H-1-benzopyran methansulphonate], the LD50 at 168 h stood at 127 mg/kg in data set [1] (setting [4]) and 224 mg/kg in data set [1] (setting [5]). Moreover, the half-inhibitory concentration (IC50) in data set [2] came out at 89 nM; in data set [3] it was 2 nM.

In the case of `CCOc1ccccc1N1CCN(CC(O)c2cccc3c(=O)c(C)c(-c4ccccc4)oc23)CC1.Cl` (stereo not shown) [Example 19, 8-{1-Hydroxy-2-[4-(2-ethoxyphenyl)-1-piperazinyl]-ethyl}-3-methyl-4-oxo-2-phenyl-4H-1-benzopyran hydrochloride], the results for the LD50 at 168 h in data set [1] (setting [4]) and in data set [1] (setting [5]) were > 1000 mg/kg and > 3000 mg/kg, respectively. The half-inhibitory concentration (IC50) is 165 nM in data set [2] and 340 nM in data set [3].

With `Cc1c(-c2ccccc2)oc2c(C(=O)OCCCN3CCN(c4ccccc4Cl)CC3)cccc2c1=O.Cl.Cl` [Example 7, 8-{3-[4-(2-chlorophenyl)-1-piperazinyl]-propoxycarbonyl}-3-methyl-4-oxo-2-phenyl-4H-1-benzopyran dihydrochloride], the LD50 at 168 h worked out at 384 mg/kg in data set [1] (setting [4]) and 1920 mg/kg in data set [1] (setting [5]). The IC50 in data set [2] was 86 nM; in data set [3], 155 nM.

As for `Cc1c(-c2ccccc2)oc2c(C(=O)OCCCN3CCN(c4ccccc4)CC3)cccc2c1=O.Cl.Cl` [Example 8, 8-[3-(4-phenyl-1-piperazinyl)-propoxycarbonyl]-3-methyl-4-oxo-2-phenyl-4H-1-benzopyran dihydrochloride], the results for the LD50 at 168 h in data set [1] (setting [4]) and in data set [1] (setting [5]) were > 500 mg/kg and 1920 mg/kg, respectively. Also, the concentration for half-maximal inhibition (IC50) was 66 nM in data set [2] and 111 nM in data set [3].

Turning to `COc1ccccc1N1CCN(CCNC(=O)Nc2cccc3c(=O)c(C)c(-c4ccccc4)oc23)CC1.CS(=O)(=O)O` [Example 38, 8-{2-[4-(2-methoxyphenyl)-1-piperazinyl]-ethylureido}-3-methyl-4-oxo-2-phenyl-4H-1-benzopyran methanesulphonate], the LD50 at 168 h in data set [1] (setting [4]) is > 500 mg/kg; in data set [1] (setting [5]) it was > 2000 mg/kg. The IC50 in data set [2] amounted to 20 nM; in data set [3] it was 344 nM.

With `COc1ccccc1N1CCN(CCOC(=O)c2cccc3c(=O)c(C)c(-c4ccccc4)oc23)CC1.Cl.Cl` [Example 6, 8-{2-[4-(2-methoxyphenyl)-1-piperazinyl]-ethoxycarbonyl}-3-methyl-4-oxo-2-phenyl-4H-1-benzopyran dihydrochloride], the LD50 at 168 h in data set [1] (setting [4]) worked out at 233 mg/kg. Moreover, the figures for the IC50 in data set [2] and in data set [3] were 107 nM and 1000 nM, respectively.

Consider `COc1ccccc1OCCN(C)CCCNC(=O)c1cccc2c(=O)c(C)c(-c3ccccc3)oc12.Cl` [Example 62, 8-{3-[N-methyl-2-(2-methoxyphenoxy)-ethylamino]-propylcarbamoyl}-3-methyl-4-oxo-2-phenyl-4H-1-benzopyran hydrochloride], for which the LD50 at 168 h in data set [1] (setting [4]) is 128 mg/kg; in data set [1] (setting [5]), 344 mg/kg. Besides, the IC50 was 252 nM in data set [2] and 278 nM in data set [3].

As to `COc1ccccc1N1CCN(CCCCc2cccc3c(=O)c(C)c(-c4ccccc4)oc23)CC1.CS(=O)(=O)O` [Example 53, 8-{4-[4-(2-methoxyphenyl)-1-piperazinyl]-butyl}-3-methyl-4-oxo-2-phenyl-4H-1-benzopyran methanesulphonate], the LD50 at 168 h in data set [1] (setting [4]) stood at 127 mg/kg; in data set [1] (setting [5]) it was 1020 mg/kg. The IC50 in data set [2] was 7 nM; in data set [3] it was 41 nM.

Take `COc1ccccc1N1CCN(CCCCNC(=O)c2cccc3c(=O)c(C)c(-c4ccccc4)oc23)CC1.CS(=O)(=O)O` [Example 60, 8-{4-[4-(2-methoxyphenyl)-1-piperazinyl]-butylcarbamoyl}-3-methyl-4-oxo-2-phenyl-4H-1-benzopyran methansulphonate]: the LD50 at 168 h in data set [1] (setting [4]) worked out at 203 mg/kg; in data set [1] (setting [5]), 329 mg/kg. The IC50 stood at 25 nM in data set [2] and 45 nM in data set [3].

As for `COc1ccccc1N1CCN(CCCN(C(N)=O)c2cccc3c(=O)c(C)c(-c4ccccc4)oc23)CC1` [Example 50, 8-{N-carbamoyl-3-[4-(2-methoxyphenyl)-1-piperazinyl]-propylamino}-3-methyl-4-oxo-2-phenyl-4H-1-benzopyran methanesulphonate hemihydrate], the LD50 at 168 h in data set [1] (setting [4]) was determined as 211 mg/kg; in data set [1] (setting [5]), 299 mg/kg. Besides, the values for the IC50 in data set [2] and in data set [3] were 39 nM and 300 nM, respectively.

Turning to `Cc1c(-c2ccccc2)oc2c(C(=O)NCCCN3CCN(c4ccccc4)CC3)cccc2c1=O` [Example 15, 8-[3-(4-phenyl-1-piperazinyl)-propylcarbamoyl]-3-methyl-4-oxo-2-phenyl-4H-1-benzopyran monohydrochloride hemihydrate], the values for the LD50 at 168 h in data set [1] (setting [4]) and in data set [1] (setting [5]) were 306 mg/kg and 496 mg/kg, respectively. Also, the half-maximal inhibitory concentration (IC50) in data set [2] was 8 nM; in data set [3], 131 nM.

For the molecule `COc1ccccc1N1CCN(CCCC(=O)c2cccc3c(=O)c(C)c(-c4ccccc4)oc23)CC1.CS(=O)(=O)O` [methanesulphonate], the IC50 in data set [2] amounted to 22 nM; in data set [3], 84 nM.

Regarding `COc1ccccc1N1CCN(CCCNC(=O)c2cccc3c(=O)c(C)c(-c4ccc(C(F)(F)F)cc4)oc23)CC1` [Example 99, 8-{3-[4-(2-methoxyphenyl)-1-piperazinyl]-propylcarbamoyl}-3-methyl-4-oxo-2-(4-trifluoromethylphenyl)-4H-1-benzopyran methanesulphonate sesquihydrate], the IC50 came to 44 nM in data set [2] and 5 nM in data set [3].
